{"source": "patent US20110028566A1", "about": "“COMPOSITIONS AND PRODUCTS CONTAINING CYCLOALIPHATIC DIOL ANTIMICROBIAL AGENTS AND METHODS OF USING THE COMPOSITIONS AND PRODUCTS” (EASTMAN CHEMICAL COMPANY, priority 2009, published 2011)", "assay_in_all_cases": "Microbial challenge testing in BPW", "format_in_all_cases": "cell-based", "key": {"Aeromonas sp.": {"test_system": "Aeromonas sp.", "conditions": "BPW, w/v % in label, average of replicates", "method": "(§1) The microorganisms used in challenge tests are given in Table 3, designated as either ATCC (American Type Culture Collection) or wild type. These wild type organisms were problematic organisms previously isolated from chemical products. In the description for each organism, the bacteria are indicated as either GN (Gram negative) or GP (Gram positive).\n(§2) All of the microorganisms were grown in Tryptose Soy Broth (TSB), DIFCO™ available from Becton, Dickinson and Company, containing 1% dextrose. Aspergillus niger and Candida albicans were incubated at 22° C.±2° C. for at least 96 hours. All bacteria were incubated at 35° C.±2° C. in a humidified incubator for at least 96 hours.\n(§3) The following procedure was followed to determine the amount of each challenge material (inoculum broth) required to produce a 10^8 cfu/mL challenge, which is equivalent to a final test-sample microbial concentration of 10^5 to 10^6 cfu (colony-forming units)/mL.\n(§4) Using a sterile serological pipette, 1 mL of the growth from each TSB culture was transferred into tubes containing 9 mL phosphate buffer (pH 7.2) and mixed thoroughly. This process was repeated to make serial 1:10 dilutions. Then 0.1 mL of each sample and dilution was inoculated onto agar plates to produce the equivalent of a further 1:10 dilution. C. albicans and A. niger were inoculated onto SDA and bacteria were inoculated onto Plate Count Agar (PCA), DIFCO™ available from Becton, Dickinson and Company. The 0.1 mL aliquots were evenly distributed on the plates using the spread-plate technique. The spread-plate technique is performed by spreading the aliquot over the entire plate surface using a sterile spreading rod while rotating the plate with a rotary auto-plater. After the inoculum was absorbed completely, each plate was inverted and incubated (fungi at 22° C.±2° C. and bacteria at 35° C.±2° C.).\n(§5) After incubation for at least 48 hours, colonies that had developed on the agar plates were counted and recorded with the corresponding dilution. If counting had to be delayed temporarily, plates were refrigerated, preferably no more than 24 hours, until they could be counted. The number of cfu/mL was determined by multiplying the count by the dilution factor for that particular plate.\n(§6) Turbidity in Nepholemetric Turbidity Units (NTU) was measured for each serial dilution using the HF-Micro 100 Model Turbidimeter. For each microorganism, the plate counts were compared to the turbidity readings.\n(§7) Control substrates (“broth alone”) were prepared for each microorganism separately in triplicate by adding 13.5 mL of BPW (pH 7.0) containing 1% (w/v) dextrose to each 20-mL glass tube; then adding 1.5 mL challenge material to produce a final concentration at time zero of 10^5 to 10^6 cfu/mL and a total volume of 15 mL.\n(§8) Test sample substrates were prepared containing each test material (1,4-CHDM, etc) or combination of test materials at the concentrations shown in Tables 5 and 6. Sample substrates were prepared in triplicate, except those substrates containing PE or CG which were prepared in duplicate. Substrates were prepared by adding BPW containing 1% (w/v) dextrose to each 20-mL glass tube, then adding the test material in the amount appropriate to achieve the desired weight/volume percent (g/100 mL) and to obtain a total volume of BPW with dextrose and test material of 13.5 mL. Then 1.5 mL challenge material was added to produce a final concentration at time zero of 10^5 to 10^6 cfu/mL of the respective organism and a total test sample substrate volume of 15 mL.\n(§9) After mixing, all challenged substrates were incubated at 35° C.±2° C. for 14 days and then at ambient room temperature."}, "Escherichia coli": {"test_system": "Escherichia coli", "conditions": "BPW, w/v % in label, average of replicates; for Grade code, E. coli, 3 Day: 3 days incubation; for Grade code, E. coli, 14 Day: 14 days incubation; for Grade code, E. coli, 30 Day: 30 days incubation", "method": "as §1, §2, §3, §4, §5, §6, §7, §8, §9"}, "Proteus vulgaris": {"test_system": "Proteus vulgaris", "conditions": "BPW, w/v % in label, average of replicates; for Grade code, P. vulgaris, 3 Days: 3 days incubation", "method": "as §1, §2, §3, §4, §5, §6, §7, §8, §9"}, "Bacillus subtilis": {"test_system": "Bacillus subtilis", "conditions": "BPW, w/v % in label, average of replicates; for Grade code, B. subtilis, 3 Day: 3 days incubation; for Grade code, B. subtilis, 14 Day: 14 days incubation; for Grade code, B. subtilis, 30 Days: 30 days incubation", "method": "as §1, §2, §3, §4, §5, §6, §7, §8, §9"}, "Pseudomonas aeruginosa": {"test_system": "Pseudomonas aeruginosa", "conditions": "BPW, w/v % in label, average of replicates; for Grade code, P. aeruginosa, 3 Days: 3 days incubation; for Grade code, P. aeruginosa, 13 Days: 13 days incubation; for Grade code, P. aeruginosa, 30 Days: 30 days incubation", "method": "as §1, §2, §3, §4, §5, §6, §7, §8, §9"}, "[1]": {"test_system": "Staphylococcus epidermidis", "conditions": "BPW, w/v % in label, average of replicates; for Grade code, S. epidermidis, 3 Days: 3 days incubation; for Grade code, S. epidermidis, 13 Days: 13 days incubation; for Grade code, S. epidermidis, 30 Days: 30 days incubation", "method": "as §1, §2, §3, §4, §5, §6, §7, §8, §9"}, "Burkholderia cepacia": {"test_system": "Burkholderia cepacia", "conditions": "BPW, w/v % in label, average of replicates; for Grade code, B. cepacia, 14 Days: 14 days incubation; for Grade code, B. cepacia, 30 Days: 30 days incubation", "method": "as §1, §2, §3, §4, §5, §6, §7, §8, §9"}, "Candida albicans": {"test_system": "Candida albicans", "conditions": "BPW, w/v % in label, average of replicates", "method": "as §1, §2\nAspergillus niger and Candida albicans were also grown on Sabouraud dextrose agar (SDA) at 22° C.±2° C. for 7 to 14 days or until full sporulation was achieved.\nas §3, §4, §5, §6\nOn the day of challenge, the Candida albicans inoculum broth was poured through non-absorbent sterile gauze and centrifuged. The […] was then diluted with phosphate buffer (pH 7.2) until the desired turbidity was reached. Using a hemocytometer, a determination was made whether the challenge contained the desired concentration. Dilutions were made through 1.0×10^8 and three SDA spread plates were inoculated with 0.1 mL of each dilution.\nas §7\nTest sample substrates were prepared containing each test material (1,4-CHDM, etc) or combination of test materials at the concentrations shown in Tables 5 and 6."}}}
{"smiles": "CCCCCCC(O)CO", "note": "(stereo not drawn) [CG, 1,2-octanediol]", "values": [{"measurement": "Grade code, Aeromonas sp, 3 Days", "setting": "Aeromonas sp.; 3 days incubation", "result": "4 (1001 to 10,000 colonies (thus 10,000 cfu/mL to 100,000 cfu/mL))"}, {"measurement": "Grade code, Aeromonas sp, 14 Days", "setting": "Aeromonas sp.; 14 days incubation", "result": "4 (1001 to 10,000 colonies (thus 10,000 cfu/mL to 100,000 cfu/mL))"}, {"measurement": "Grade code, Aeromonas sp, 30 Days", "setting": "Aeromonas sp.; 30 days incubation", "result": "4 (1001 to 10,000 colonies (thus 10,000 cfu/mL to 100,000 cfu/mL))"}, {"measurement": "Grade code, E. coli, 3 Day", "setting": "Escherichia coli; listed as 0.25% CG", "result": "3 (101 to 1000 colonies (thus 1000 to 10,000 cfu/mL))"}, {"measurement": "Grade code, E. coli, 3 Day", "setting": "Escherichia coli; listed as 0.5% CG", "result": "1 (1 to 51 colonies counted (thus 10 to 510 cfu/mL))"}, {"measurement": "Grade code, E. coli, 14 Day", "setting": "Escherichia coli; listed as 0.25% CG", "result": "2 (52 to 100 colonies counted (thus 520 to 1000 cfu/mL))"}, {"measurement": "Grade code, E. coli, 14 Day", "setting": "Escherichia coli; listed as 0.5% CG", "result": "0 (No growth detected or <1 colony (thus <10 cfu/mL))"}, {"measurement": "Grade code, E. coli, 30 Day", "setting": "Escherichia coli; listed as 0.25% CG", "result": "2 (52 to 100 colonies counted (thus 520 to 1000 cfu/mL))"}, {"measurement": "Grade code, E. coli, 30 Day", "setting": "Escherichia coli; listed as 0.5% CG", "result": "0 (No growth detected or <1 colony (thus <10 cfu/mL))"}, {"measurement": "Grade code, P. vulgaris, 3 Days", "setting": "Proteus vulgaris; listed as 0.25% CG", "result": "4 (1001 to 10,000 colonies (thus 10,000 cfu/mL to 100,000 cfu/mL))"}, {"measurement": "Grade code, P. vulgaris, 3 Days", "setting": "Proteus vulgaris; listed as 0.5% CG", "result": "3 (101 to 1000 colonies (thus 1000 to 10,000 cfu/mL))"}, {"measurement": "Grade code, P. vulgaris, 13 Days", "setting": "Proteus vulgaris; 13 days incubation", "result": "2 (52 to 100 colonies counted (thus 520 to 1000 cfu/mL))"}, {"measurement": "Grade code, P. vulgaris, 30 Day", "setting": "Proteus vulgaris; 30 days incubation", "result": "2 (52 to 100 colonies counted (thus 520 to 1000 cfu/mL))"}, {"measurement": "Grade code, B. subtilis, 3 Day", "setting": "Bacillus subtilis; listed as 0.25% CG", "result": "4 (1001 to 10,000 colonies (thus 10,000 cfu/mL to 100,000 cfu/mL))"}, {"measurement": "Grade code, B. subtilis, 3 Day", "setting": "Bacillus subtilis; listed as 0.5% CG", "result": "3 (101 to 1000 colonies (thus 1000 to 10,000 cfu/mL))"}, {"measurement": "Grade code, B. subtilis, 14 Day", "setting": "Bacillus subtilis; listed as 0.25% CG", "result": "4 (1001 to 10,000 colonies (thus 10,000 cfu/mL to 100,000 cfu/mL))"}, {"measurement": "Grade code, B. subtilis, 14 Day", "setting": "Bacillus subtilis; listed as 0.5% CG", "result": "1 (1 to 51 colonies counted (thus 10 to 510 cfu/mL))"}, {"measurement": "Grade code, B. subtilis, 30 Days", "setting": "Bacillus subtilis; listed as 0.25% CG", "result": "4 (1001 to 10,000 colonies (thus 10,000 cfu/mL to 100,000 cfu/mL))"}, {"measurement": "Grade code, B. subtilis, 30 Days", "setting": "Bacillus subtilis; listed as 0.5% CG", "result": "1 (1 to 51 colonies counted (thus 10 to 510 cfu/mL))"}, {"measurement": "Grade code, P. aeruginosa, 3 Days", "setting": "Pseudomonas aeruginosa; listed as 0.25% CG", "result": "2 (52 to 100 colonies counted (thus 520 to 1000 cfu/mL))"}, {"measurement": "Grade code, P. aeruginosa, 3 Days", "setting": "Pseudomonas aeruginosa; listed as 0.5% CG", "result": "0 (No growth detected or <1 colony (thus <10 cfu/mL))"}, {"measurement": "Grade code, P. aeruginosa, 13 Days", "setting": "Pseudomonas aeruginosa; listed as 0.25% CG", "result": "2 (52 to 100 colonies counted (thus 520 to 1000 cfu/mL))"}, {"measurement": "Grade code, P. aeruginosa, 13 Days", "setting": "Pseudomonas aeruginosa; listed as 0.5% CG", "result": "0 (No growth detected or <1 colony (thus <10 cfu/mL))"}, {"measurement": "Grade code, P. aeruginosa, 30 Days", "setting": "Pseudomonas aeruginosa; listed as 0.25% CG", "result": "2 (52 to 100 colonies counted (thus 520 to 1000 cfu/mL))"}, {"measurement": "Grade code, P. aeruginosa, 30 Days", "setting": "Pseudomonas aeruginosa; listed as 0.5% CG", "result": "0 (No growth detected or <1 colony (thus <10 cfu/mL))"}, {"measurement": "Grade code, S. epidermidis, 3 Days", "setting": "[1]; listed as 0.25% CG", "result": "4 (1001 to 10,000 colonies (thus 10,000 cfu/mL to 100,000 cfu/mL))"}, {"measurement": "Grade code, S. epidermidis, 3 Days", "setting": "[1]; listed as 0.5% CG", "result": "2 (52 to 100 colonies counted (thus 520 to 1000 cfu/mL))"}, {"measurement": "Grade code, S. epidermidis, 13 Days", "setting": "[1]; listed as 0.25% CG", "result": "1 (1 to 51 colonies counted (thus 10 to 510 cfu/mL))"}, {"measurement": "Grade code, S. epidermidis, 13 Days", "setting": "[1]; listed as 0.5% CG", "result": "0 (No growth detected or <1 colony (thus <10 cfu/mL))"}, {"measurement": "Grade code, S. epidermidis, 30 Days", "setting": "[1]; listed as 0.25% CG", "result": "1 (1 to 51 colonies counted (thus 10 to 510 cfu/mL))"}, {"measurement": "Grade code, S. epidermidis, 30 Days", "setting": "[1]; listed as 0.5% CG", "result": "0 (No growth detected or <1 colony (thus <10 cfu/mL))"}, {"measurement": "Grade code, B. cepacia, 3 Days", "setting": "Burkholderia cepacia; 3 days incubation", "result": "2 (52 to 100 colonies counted (thus 520 to 1000 cfu/mL))"}, {"measurement": "Grade code, B. cepacia, 14 Days", "setting": "Burkholderia cepacia; listed as 0.25% CG", "result": 0.5}, {"measurement": "Grade code, B. cepacia, 14 Days", "setting": "Burkholderia cepacia; listed as 0.5% CG", "result": "0 (No growth detected or <1 colony (thus <10 cfu/mL))"}, {"measurement": "Grade code, B. cepacia, 30 Days", "setting": "Burkholderia cepacia; listed as 0.25% CG", "result": 0.5}, {"measurement": "Grade code, B. cepacia, 30 Days", "setting": "Burkholderia cepacia; listed as 0.5% CG", "result": "0 (No growth detected or <1 colony (thus <10 cfu/mL))"}, {"measurement": "Grade code, C. albicans, 3 Day", "setting": "Candida albicans; 3 days incubation", "result": "3 (101 to 1000 colonies (thus 1000 to 10,000 cfu/mL))"}, {"measurement": "Grade code, C. albicans, 14 Day", "setting": "Candida albicans; 14 days incubation", "result": "0 (No growth detected or <1 colony (thus <10 cfu/mL))"}, {"measurement": "Grade code, C. albicans, 30 Days", "setting": "Candida albicans; 30 days incubation", "result": "0 (No growth detected or <1 colony (thus <10 cfu/mL))"}]}
